Patent US20130012432A1, “Peptides for Treatment of Obesity” (Novo Nordisk A/S, priority 2010, published 2013)
Converted amounts (≈) assume the structure as drawn. Positions of bridges follow the written chain, without caps; N, C: chain ends. Non-standard residues stand in square brackets, D forms with d. Residues, ends and D or L forms follow the SMILES beside them. Groups on a side chain read outwards from the residue. *: point of attachment. Palmitoyl(16-(5-tetrazolyl)) = O=C(CCCCCCCCCCCCCCCc1nnn[nH]1)*; Lys(CH2CO2H)2 = N[C@@H](CCCCN(CC(=O)O)CC(=O)O)C(=O)O; C16 diacid = O=C(O)CCCCCCCCCCCCCCC(=O)*; hCys = N[C@@H](CCS)C(=O)O; Dab = NCC[C@H](N)C(=O)O; Dap = NC[C@H](N)C(=O)O; AEEA = NCCOCCOCC(=O)O

Experiments:
MC1 receptor = MC1 receptor (Homo sapiens, UniProt Q01726); assay: biochemical
Summary of the method: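 Radioligand competition on membranes (25 μg/ml) of BHK cells stably expressing MC1, with 22 pM final 125I-NDP-α-MSH in 25 mM HEPES pH 7.4, Ca/Mg, EDTA, 0.1% HSA (or ovalbumin), 0.005% Tween 20. Incubated 90 min at 30 °C, filtered over PEI-treated GF/B; curves fitted by non-linear regression.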

physchem = assay: physchem
Procedure: From a stock solution in vehicle, either H2O or 10 mM phosphate, containing 1 mg (as weighed) compound per ml, 8-11 aliquots are withdrawn and pH-adjusted individually with HCl/NaOH, to cover the whole pH range.

human MC4 receptor = human MC4 receptor (Homo sapiens, UniProt P32245); assay: biochemical
Procedure: Assay (V)—Melanocortin Receptor 4 (MC4) Binding Assay
In Vitro ^125NDP-α-MSH Binding to Recombinant BHK Cells Expressing Human MC4 Receptor (Filtration Assay).
The assay was performed in 5 ml minisorb vials (Sarstedt No. 55.526) or in 96-well filter-plates (Millipore MADVN 6550), and using BHK cells expressing the human MC4 receptor using BHK cells stably expressing the human MC4 receptor. The membranes were prepared from frozen or fresh cells that were homogenized in 20 mM HEPES pH 7.1, 5 mM MgCl2 and 1 mg/ml bacitracin and centrifuged at 15000 rpm at 4° C., 10 min in a Sorvall RC 5B plus, SS-34 rotor. The supernatant was discarded, and the pellets were re-suspended in buffer, homogenized and centrifuged two more times. The final pellets were resuspended in the buffer mentioned above, and the protein concentration was measured and adjusted with buffer to 14 to 17 mg/ml and the membrane preparation were kept at −80° C. until assay. The assay was run directly on a dilution of this cell membrane suspension, without any further preparation. The BHK cell membranes are kept at −80° C. until assay, and the assay is run directly on a dilution of this cell membrane suspension, without further preparation. The suspension is diluted to give maximally 10% specific binding, i.e. to approx. 50-100 fold dilution. The assay was performed in a total volume of 200 μl: 50 μl of cell suspension, 50 μl of ^125NDP-α-MSH (≈79 pM in final concentration), 50 μl of test compound and 50 μl binding buffer (pH 7) mixed and incubated for 2 h at 25° C. [binding buffer: 25 mM HEPES, pH 7.0, 1 mM CaCl2, 1 mM MgSO4, 1 mM EGTA, 0.02% Bacitracin, 0.005% Tween™ 20 and 0.1% HSA or, alternatively, 0.1% ovalbumin (Sigma; catalogue No. A-5503)]. Test compounds were dissolved in DMSO and diluted in binding buffer. Radiolabelled ligand and membranes were diluted in binding buffer. The incubation was stopped by dilution with 2×100 μl ice-cold 0.9% NaCl. The radioactivity retained on the filters was counted using a Cobra II auto gamma counter.
The data were analysed by non-linear regression analysis of binding curves, using the Windows™ program GraphPad™ Prism (GraphPad Software, USA).

Chain of human MC4 receptor (P32245 whole entry): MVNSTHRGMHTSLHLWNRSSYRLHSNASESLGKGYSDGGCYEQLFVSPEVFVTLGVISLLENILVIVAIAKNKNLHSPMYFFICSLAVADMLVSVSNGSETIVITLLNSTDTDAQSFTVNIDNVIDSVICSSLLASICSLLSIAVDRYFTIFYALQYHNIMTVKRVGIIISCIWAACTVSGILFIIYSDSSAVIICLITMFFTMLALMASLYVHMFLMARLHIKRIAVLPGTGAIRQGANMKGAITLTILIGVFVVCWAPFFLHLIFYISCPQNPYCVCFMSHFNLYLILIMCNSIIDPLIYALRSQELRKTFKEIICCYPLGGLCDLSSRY
Chain of MC1 receptor (Q01726 whole entry): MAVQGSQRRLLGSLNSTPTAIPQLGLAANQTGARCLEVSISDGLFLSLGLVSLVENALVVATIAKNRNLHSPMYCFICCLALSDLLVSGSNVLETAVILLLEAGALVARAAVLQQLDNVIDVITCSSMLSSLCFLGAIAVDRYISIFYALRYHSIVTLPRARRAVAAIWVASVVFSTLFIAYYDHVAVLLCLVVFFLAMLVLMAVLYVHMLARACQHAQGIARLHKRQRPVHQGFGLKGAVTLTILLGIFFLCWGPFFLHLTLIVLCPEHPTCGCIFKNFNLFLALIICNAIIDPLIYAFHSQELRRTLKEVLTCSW

Structure (SMILES)	Ki (MC1 receptor) [µM]	solubility (physchem; pH 6.1, Solubility Conc.) [µM]	solubility (physchem; pH 7.7, Solubility Conc.) [µM]	solubility (physchem; pH 7.8, Solubility Conc.) [µM]	Ki (human MC4 receptor) [µM]	solubility (physchem; pH 6.9, Solubility Conc.) [µM]	solubility (physchem; pH 7.2, Solubility Conc.) [µM]	solubility (physchem; pH 7.4, Solubility Conc.) [µM]	solubility (physchem; pH 7.6, Solubility Conc.) [µM]	other results
CC(=O)N[C@H]1CCSSC[C@@H](C(=O)N2CCC[C@H]2C(=O)N2CCC[C@H]2C(=O)N[C@@H](CCCCN)C(=O)N[C@@H](CCC(=O)O)C(=O)N[C@@H](CCCCN(CC(=O)O)CC(=O)O)C(=O)N[C@@H](CCCCNC(=O)COCCOCCNC(=O)CCCCCCCCCCCCCCC(=O)O)C(N)=O)NC(=O)[C@H](Cc2c[nH]c3ccccc23)NC(=O)[C@H](CCCNC(=N)N)NC(=O)[C@@H](Cc2ccccc2)NC(=O)[C@H](Cc2c[nH]cn2)NC1=O [Example 5, Ac-c[homoCys-His-D-Phe-Arg-Trp-Cys]-Pro-Pro-Lys-Glu-Lys(biscarboxymethyl)-Lys({2-[2-(15-carboxypentadecanoylamino)ethoxy]ethoxy}acetyl)-NH2] (Ac-[hCys]H[dF]RWCPPKE[Lys(CH2CO2H)2]K([AEEA-C16 diacid])-NH2; disulfide 1-6)	> 10	200 (≈ 428 µg/mL)	498 (≈ 1070 µg/mL)	509 (≈ 1090 µg/mL)	0.017	–	–	–	–	solubility (physchem; pH 3.8, Solubility Conc.): 486 µM (≈ 1040 µg/mL); solubility (physchem; pH 4.6, Solubility Conc.): 452 µM (≈ 968 µg/mL); solubility (physchem; pH 4.9, Solubility Conc.): 233 µM (≈ 499 µg/mL); solubility (physchem; pH 6.7, Solubility Conc.): 320 µM (≈ 685 µg/mL); solubility (physchem; pH 7.1, Solubility Conc.): 489 µM (≈ 1050 µg/mL); solubility (physchem; pH 7.3, Solubility Conc.): 496 µM (≈ 1060 µg/mL)
CC(=O)N[C@H]1CCC(=O)NC[C@@H](C(=O)N2CCC[C@H]2C(=O)N2CCC[C@H]2C(=O)N[C@@H](CCCNC(=N)N)C(=O)N[C@@H](CC(=O)O)C(=O)N[C@@H](CCCCN(CC(=O)O)CC(=O)O)C(=O)N[C@@H](CCCCNC(=O)COCCOCCNC(=O)CCCCCCCCCCCCCCCc2nnn[nH]2)C(N)=O)NC(=O)[C@H](Cc2c[nH]c3ccccc23)NC(=O)[C@H](CCCNC(=N)N)NC(=O)[C@@H](Cc2ccccc2)NC(=O)[C@H](Cc2c[nH]cn2)NC1=O [Example 6, Ac-c[Glu-His-D-Phe-Arg-Trp-Dap]-Pro-Pro-Arg-Asp-Lys(biscarboxymethyl)-Lys[(2-{2-[16-(tetrazol-5-yl)hexadecanoylamino]ethoxy}ethoxy)acetyl]-NH2] (Ac-EH[dF]RW[Dap]PPRD[Lys(CH2CO2H)2]K([AEEA-Palmitoyl(16-(5-tetrazolyl))])-NH2; lactam 1-6)	> 10	–	–	254 (≈ 552 µg/mL)	0.013	44 (≈ 95.6 µg/mL)	82 (≈ 178 µg/mL)	208 (≈ 452 µg/mL)	290 (≈ 630 µg/mL)	solubility (physchem; pH 5.9, Solubility Conc.): 23 µM (≈ 50 µg/mL); solubility (physchem; pH 6.3, Solubility Conc.): 24 µM (≈ 52.1 µg/mL); solubility (physchem; pH 7.5, Solubility Conc.): 270 µM (≈ 587 µg/mL); solubility (physchem; pH 8.1, Solubility Conc.): 280 µM (≈ 608 µg/mL)
CC(=O)N[C@H]1CCNC(=O)CC[C@@H](C(=O)N2CCC[C@H]2C(=O)N2CCC[C@H]2C(=O)N[C@@H](CCCNC(=N)N)C(=O)N[C@@H](CC(=O)O)C(=O)N[C@@H](CCCCN(CC(=O)O)CC(=O)O)C(=O)N[C@@H](CCCCNC(=O)COCCOCCNC(=O)CCCCCCCCCCCCCCCc2nnn[nH]2)C(N)=O)NC(=O)[C@H](Cc2c[nH]c3ccccc23)NC(=O)[C@H](CCCNC(=N)N)NC(=O)[C@@H](Cc2ccccc2)NC(=O)[C@H](Cc2c[nH]cn2)NC1=O [Example 23, Ac-c[Dab-His-D-Phe-Arg-Trp-Glu]-Pro-Pro-Arg-Asp-Lys(biscarboxymethyl)-Lys[(2-{2-[16-(tetrazol-5-yl)hexadecanoylamino]ethoxy}ethoxy)acetyl]-NH2] (Ac-[Dab]H[dF]RWEPPRD[Lys(CH2CO2H)2]K([AEEA-Palmitoyl(16-(5-tetrazolyl))])-NH2; lactam 1-6)	> 10	34 (≈ 74.3 µg/mL)	295 (≈ 645 µg/mL)	–	0.107	45 (≈ 98.4 µg/mL)	76 (≈ 166 µg/mL)	145 (≈ 317 µg/mL)	229 (≈ 501 µg/mL)	solubility (physchem; pH 4.7, Solubility Conc.): 73 µM (≈ 160 µg/mL); solubility (physchem; pH 6.6, Solubility Conc.): 38 µM (≈ 83.1 µg/mL); solubility (physchem; pH 7.9, Solubility Conc.): 300 µM (≈ 656 µg/mL)
